Assay results: patent publication US6358885B1, “Substituted phenylheterocyclic herbicides” (Mississippi State University, priority 1992, dated 2002)

Legend:
soybean [1] = test: Test C preemergence/postemergence greenhouse plant response rating 0 to 100; format: in vivo, Glycine max; conditions: POSTEMERGENCE; for Plant response rating, Soybean: 0 to 100 scale
In short: (§1)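 Compounds in non-phytotoxic solvent went onto sandy loam before emergence (seeded one day earlier) or onto plants at the one-to-four leaf stage. Duck salad was treated via flood water (~2.5 cm, maintained) over silt loam.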

rape = test: as above; format: in vivo, Brassica napus; conditions: POSTEMERGENCE; for Plant response rating, Rape: 0 to 100 scale
In short: as §1

soybean [2] = test: Test B preemergence/postemergence greenhouse plant response rating 0 to 10; format: in vivo, Glycine max; conditions: 0 to 10 scale
In short: (§2)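 Postemergence treatment of plants two to eighteen cm tall ran alongside preemergence treatment of planted seed, each using compound in a non-phytotoxic solvent.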

bedstraw = test: as above; format: in vivo, Galium aparine; conditions: 0 to 10 scale
In short: as §2

ryegrass = test: Test C preemergence/postemergence greenhouse plant response rating 0 to 100; format: in vivo, Lolium multiflorum; conditions: POSTEMERGENCE; for Plant response rating Ryegrass: 0 to 100 scale
In short: as §1

pigweed = test: as above; format: in vivo, Amaranthusretroflexus; conditions: POSTEMERGENCE; for Plant response rating Pigweed: 0 to 100 scale
In short: as §1

morningglory = test: Test B preemergence/postemergence greenhouse plant response rating 0 to 10; format: in vivo, Ipomoea hederacea; conditions: 0 to 10 scale
In short: as §2

barley [3] = test: as above; format: in vivo, Hordeum vulgare; conditions: 0 to 10 scale
In short: as §2

chickweed [4] = test: as above; format: in vivo, Stellaria media; conditions: 0 to 10 scale
In short: as §2

cocklebur = test: as above; format: in vivo, Xanthium pensylvanicum; conditions: 0 to 10 scale
In short: as §2

chickweed [5] = test: Test C preemergence/postemergence greenhouse plant response rating 0 to 100; format: in vivo, Stellaria media; conditions: POSTEMERGENCE; for Plant response rating, Chickweed: 0 to 100 scale
In short: as §1

velvetleaf = test: Test B preemergence/postemergence greenhouse plant response rating 0 to 10; format: in vivo, Abutilon theophrasti; conditions: 0 to 10 scale
In short: as §2

sugar beet = test: as above; format: in vivo, Beta vulgaris; conditions: 0 to 10 scale
In short: as §2

barley [6] = test: Test C preemergence/postemergence greenhouse plant response rating 0 to 100; format: in vivo, Hordeum vulgare; conditions: POSTEMERGENCE; for Plant response rating Barley Igri: 0 to 100 scale
In short: as §1

sorghum = test: Test B preemergence/postemergence greenhouse plant response rating 0 to 10; format: in vivo, Sorghum bicolor; conditions: 0 to 10 scale
In short: as §2

wild buckwheat = test: as above; format: in vivo, Polygonum convolvulus; conditions: 0 to 10 scale
In short: as §2

umbrella sedge = test: Test C flood test plant response rating 0 to 100; format: in vivo, Cyperus difformis; conditions: for Plant response rating Umbrella sedge: flood test species listed under POSTEMERGENCE, 0 to 100 scale
In short: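 Compounds in non-phytotoxic solvent applied preemergence to sandy loam one day after planting, postemergence at the 1–4 leaf stage, or to ~2.5 cm floodwater over silt loam.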

blackgrass = test: Test C preemergence/postemergence greenhouse plant response rating 0 to 100; format: in vivo, Alopecurus myosuroides; conditions: POSTEMERGENCE; for Plant response rating, Blackgrass: 0 to 100 scale
In short: as §1

## C#CC(C)N1C(=O)COc2cc(F)c(-c3nn4c(c3Cl)CCCC4)cc21 (stereo not shown) [Compound 50]
Soybean [1]; 62 g/ha
  Plant response rating, Soybean: 90
Soybean [1]; 250 g/ha
  Plant response rating, Soybean: 90
Soybean [1]; Rate 1 g/ha
  Plant response rating (0 to 100), Soybean: 40
Soybean [1]; Rate 4 g/ha
  Plant response rating (0 to 100), Soybean: 60
Soybean [1]; Rate 16 g/ha
  Plant response rating (0 to 100), Soybean: 70
rape; 62 g/ha
  Plant response rating, Rape: 100
rape; 250 g/ha
  Plant response rating, Rape: 100
rape; Rate 1 g/ha
  Plant response rating (0 to 100), Rape: 0
rape; Rate 4 g/ha
  Plant response rating (0 to 100), Rape: 0
rape; Rate 16 g/ha
  Plant response rating (0 to 100), Rape: 50
Soybean [2]; POSTEMERGENCE, Rate 10 g/ha
  Plant response rating, Soybean: 6
Soybean [2]; POSTEMERGENCE, Rate 50 g/ha
  Plant response rating, Soybean: 9
Soybean [2]; PREEMERGENCE, Rate 50 g/ha
  Plant response rating, Soybean: 3
bedstraw; POSTEMERGENCE, Rate 10 g/ha
  Plant response rating, Bedstraw: 10
bedstraw; POSTEMERGENCE, Rate 50 g/ha
  Plant response rating, Bedstraw: 10
bedstraw; PREEMERGENCE, Rate 10 g/ha
  Plant response rating, Bedstraw: 3
bedstraw; PREEMERGENCE, Rate 50 g/ha
  Plant response rating, Bedstraw: 10
ryegrass; 62 g/ha
  Plant response rating Ryegrass: 40
ryegrass; 250 g/ha
  Plant response rating Ryegrass: 50
ryegrass; Rate 1 g/ha
  Plant response rating (0 to 100), Ryegrass: 0
ryegrass; Rate 4 g/ha
  Plant response rating (0 to 100), Ryegrass: 20
ryegrass; Rate 16 g/ha
  Plant response rating (0 to 100), Ryegrass: 30
pigweed; 62 g/ha
  Plant response rating Pigweed: 100
pigweed; 250 g/ha
  Plant response rating Pigweed: 100
pigweed; Rate 1 g/ha
  Plant response rating (0 to 100), Pigweed: 85
pigweed; Rate 4 g/ha
  Plant response rating (0 to 100), Pigweed: 100
pigweed; Rate 16 g/ha
  Plant response rating (0 to 100), Pigweed: 100
morningglory; POSTEMERGENCE, Rate 10 g/ha
  Plant response rating, Morningglory: 10
morningglory; POSTEMERGENCE, Rate 50 g/ha
  Plant response rating, Morningglory: 10
morningglory; PREEMERGENCE, Rate 50 g/ha
  Plant response rating, Morningglory: 2
Barley [3]; POSTEMERGENCE, Rate 10 g/ha
  Plant response rating, Barley: 3
Barley [3]; POSTEMERGENCE, Rate 50 g/ha
  Plant response rating, Barley: 4
Barley [3]; PREEMERGENCE, Rate 10 g/ha
  Plant response rating, Barley: 0
Barley [3]; PREEMERGENCE, Rate 50 g/ha
  Plant response rating, Barley: 0
Chickweed [4]; POSTEMERGENCE, Rate 10 g/ha
  Plant response rating, Chickweed: 9
Chickweed [4]; POSTEMERGENCE, Rate 50 g/ha
  Plant response rating, Chickweed: 10
Chickweed [4]; PREEMERGENCE, Rate 10 g/ha
  Plant response rating, Chickweed: 0
Chickweed [4]; PREEMERGENCE, Rate 50 g/ha
  Plant response rating, Chickweed: 10
cocklebur; POSTEMERGENCE, Rate 10 g/ha
  Plant response rating, Cocklebur: 9
cocklebur; POSTEMERGENCE, Rate 50 g/ha
  Plant response rating, Cocklebur: 10
cocklebur; PREEMERGENCE, Rate 10 g/ha
  Plant response rating, Cocklebur: 0
cocklebur; PREEMERGENCE, Rate 50 g/ha
  Plant response rating, Cocklebur: 0
Chickweed [5]; 62 g/ha
  Plant response rating, Chickweed: 100
Chickweed [5]; 250 g/ha
  Plant response rating, Chickweed: 100
Chickweed [5]; Rate 1 g/ha
  Plant response rating (0 to 100), Chickweed: 20
Chickweed [5]; Rate 4 g/ha
  Plant response rating (0 to 100), Chickweed: 30
Chickweed [5]; Rate 16 g/ha
  Plant response rating (0 to 100), Chickweed: 80
velvetleaf; POSTEMERGENCE, Rate 10 g/ha
  Plant response rating, Velvetleaf: 9
velvetleaf; POSTEMERGENCE, Rate 50 g/ha
  Plant response rating, Velvetleaf: 10
velvetleaf; PREEMERGENCE, Rate 50 g/ha
  Plant response rating, Velvetleaf: 0
Sugar beet; POSTEMERGENCE, Rate 10 g/ha
  Plant response rating, Sugar beet: 10
Sugar beet; POSTEMERGENCE, Rate 50 g/ha
  Plant response rating, Sugar beet: 10
Sugar beet; PREEMERGENCE, Rate 50 g/ha
  Plant response rating, Sugar beet: 10
Barley [6]; 62 g/ha
  Plant response rating Barley Igri: 40
Barley [6]; 250 g/ha
  Plant response rating Barley Igri: 50
Barley [6]; Rate 1 g/ha
  Plant response rating (0 to 100), Barley Igri: 0
Barley [6]; Rate 4 g/ha
  Plant response rating (0 to 100), Barley Igri: 20
Barley [6]; Rate 16 g/ha
  Plant response rating (0 to 100), Barley Igri: 30
sorghum; POSTEMERGENCE, Rate 10 g/ha
  Plant response rating, Sorghum: 4
sorghum; POSTEMERGENCE, Rate 50 g/ha
  Plant response rating, Sorghum: 3
sorghum; PREEMERGENCE, Rate 50 g/ha
  Plant response rating, Sorghum: 0
Wild buckwheat; POSTEMERGENCE, Rate 10 g/ha
  Plant response rating, Wild buckwheat: 10
Wild buckwheat; POSTEMERGENCE, Rate 50 g/ha
  Plant response rating, Wild buckwheat: 10
Wild buckwheat; PREEMERGENCE, Rate 50 g/ha
  Plant response rating, Wild buckwheat: 7
Umbrella sedge; POSTEMERGENCE section, flood test, Rate 4 g/ha
  Plant response rating (0 to 100), Umbrella sedge: 0
Umbrella sedge; Rate 16 g/ha, under POSTEMERGENCE head (flood test species)
  Plant response rating (0 to 100), Umbrella sedge: 0
Umbrella sedge; 62 g/ha
  Plant response rating Umbrella sedge: 75
Umbrella sedge; 250 g/ha
  Plant response rating Umbrella sedge: 95
blackgrass; 62 g/ha
  Plant response rating, Blackgrass: 60
blackgrass; 250 g/ha
  Plant response rating, Blackgrass: 60
blackgrass; Rate 1 g/ha
  Plant response rating (0 to 100), Blackgrass: 20
blackgrass; Rate 4 g/ha
  Plant response rating (0 to 100), Blackgrass: 30
blackgrass; Rate 16 g/ha
  Plant response rating (0 to 100), Blackgrass: 50
